Experiments:
FGFR2 = FGFR2 (Homo sapiens (Human), UniProt P21802); test: Biochemical FGFR2 Caliper assay
SNU-16 = test: Cell SNU-16 assay; format: cell-based; conditions: Homo sapiens, SNU-16, SNU-16 cells

FGFR2, sequence (P21802 22-821): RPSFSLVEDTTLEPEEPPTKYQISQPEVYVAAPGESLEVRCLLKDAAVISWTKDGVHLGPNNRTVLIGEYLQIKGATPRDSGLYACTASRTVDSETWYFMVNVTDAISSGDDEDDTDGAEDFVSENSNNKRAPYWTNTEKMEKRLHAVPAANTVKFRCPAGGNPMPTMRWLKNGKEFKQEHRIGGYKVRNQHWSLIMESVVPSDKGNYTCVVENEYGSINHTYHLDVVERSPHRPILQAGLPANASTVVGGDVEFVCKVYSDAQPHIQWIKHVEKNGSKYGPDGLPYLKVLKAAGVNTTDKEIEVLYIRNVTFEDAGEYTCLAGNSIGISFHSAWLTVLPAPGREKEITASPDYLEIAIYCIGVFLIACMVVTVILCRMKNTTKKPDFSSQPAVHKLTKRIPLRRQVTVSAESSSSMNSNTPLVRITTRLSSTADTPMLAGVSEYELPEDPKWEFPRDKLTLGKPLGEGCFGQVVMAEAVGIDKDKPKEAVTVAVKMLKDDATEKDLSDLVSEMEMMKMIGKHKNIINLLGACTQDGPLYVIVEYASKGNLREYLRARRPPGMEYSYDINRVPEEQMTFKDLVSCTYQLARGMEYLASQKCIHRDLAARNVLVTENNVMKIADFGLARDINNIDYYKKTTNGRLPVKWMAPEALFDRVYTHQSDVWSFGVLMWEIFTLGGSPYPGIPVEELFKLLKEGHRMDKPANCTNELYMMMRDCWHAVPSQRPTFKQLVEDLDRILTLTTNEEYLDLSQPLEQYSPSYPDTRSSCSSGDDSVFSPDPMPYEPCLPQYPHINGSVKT

IC50 (FGFR2) | IC50 (SNU-16) | Structure (SMILES)
0.1 to 0.25 µM | 0.1 to 0.25 µM | C=CC(=O)N1CC=C(c2c(C3=CC[C@@H](C(=O)N4CCCC4)CC3)c3c(N)ncnc3n2C)C1 (single isomer, unassigned) [Example 872]
1 to 100 µM | 0.25 to 1 µM | C=CC(=O)N1CC[C@H](c2c(C3=CC[C@H](C(=O)N4CCCC4)CC3)c3c(N)ncnc3n2C)C1 (single isomer, unassigned) [Example 873]
0.25 to 1 µM | 0.1 to 0.25 µM | C=CC(=O)N1CC[C@H](c2c(C3=CC[C@@H](C(=O)N4CCCC4)CC3)c3c(N)ncnc3n2C)C1 (single isomer, unassigned) [Example 874]
0.25 to 1 µM | 0.25 to 1 µM | Cc1ccnc(Oc2ccc(-c3c([C@@H]4CCN(C(=O)CCl)C4)n(C)c4ncnc(N)c34)cc2)n1 (single isomer, unassigned) [Example 875]
< 0.1 µM | ≤ 0.1 µM | Cc1ccnc(Oc2ccc(-c3c([C@H]4CCN(C(=O)CCl)C4)n(C)c4ncnc(N)c34)cc2)n1 (single isomer, unassigned) [Example 876]
1 to 100 µM | 1 to 100 µM | C=C(C)C(=O)Nc1ccc(-c2c(C3=C(F)C[C@@H](C(=O)N4CCCC4)CC3)c3c(N)ncnc3n2C)cc1 (single isomer, unassigned) [Example 883]
1 to 100 µM | 0.1 to 0.25 µM | C=CC(=O)N1C[C@@H](c2c(-c3ccc(C(=O)N4CCCCC4)cc3)c3c(N)ncnc3n2C)C[C@@H]1C (single isomer, unassigned) [Example 884]
1 to 100 µM | 1 to 100 µM | C=CC(=O)N1CC[C@@H](c2c(C3=CC[C@H](C(=O)N4CCCC4)CC3)c3c(N)ncnc3n2C)C1 (single isomer, unassigned) [Example 887]
1 to 100 µM | 1 to 100 µM | C=CC(=O)N1C[C@H](c2c(-c3ccc(C(=O)N4CCCCC4)cc3)c3c(N)ncnc3n2C)C[C@@H]1C (single isomer, unassigned) [Example 888]
1 to 100 µM | 1 to 100 µM | C=C(C)C(=O)Nc1ccc(-c2c(C3=CC[C@@H](C(=O)N4CCC5(CC5)C4)CC3)c3c(N)ncnc3n2C)cc1 (single isomer, unassigned) [Example 891]
0.1 to 0.25 µM | ≤ 0.1 µM | C=C(C)C(=O)Nc1ccc(-c2c(C3=CC[C@H](C(=O)N4CCC5(CC5)C4)CC3)c3c(N)ncnc3n2C)cc1 (single isomer, unassigned) [Example 892]
0.25 to 1 µM | 0.25 to 1 µM | C=C(C)C(=O)Nc1ccc(-c2c(-c3ccc4c(c3)CO[C@@H]4c3cccc(C)n3)c3c(N)ncnc3n2C)cc1 (single isomer, unassigned) [Example 894]
0.1 to 0.25 µM | 0.25 to 1 µM | C=C(C)C(=O)Nc1ccc(-c2c(-c3ccc4c(c3)CO[C@H]4c3cccc(C)n3)c3c(N)ncnc3n2C)cc1 (single isomer, unassigned) [Example 896]
0.1 to 0.25 µM | ≤ 0.1 µM | Cn1c(-c2ccc(NC(=O)CCl)cc2)c(C2=CC[C@H](C(=O)N3CCCC3)CC2)c2c(N)ncnc21 (single isomer, unassigned) [Example 905]
< 0.1 µM | ≤ 0.1 µM | Cn1c(-c2ccc(NC(=O)CCl)cc2)c(C2=CC[C@@H](C(=O)N3CCCC3)CC2)c2c(N)ncnc21 (single isomer, unassigned) [Example 906]
0.1 to 0.25 µM | ≤ 0.1 µM | Cc1ccnc(Oc2ccc(-c3c(C4=CCN(C(=O)[C@H]5CO5)C4)n(C)c4ncnc(N)c34)cc2)n1 (single isomer, unassigned) [Example 908]
1 to 100 µM | 1 to 100 µM | Cc1ccnc(Oc2ccc(-c3c(C4=CCN(C(=O)[C@@H]5CO5)C4)n(C)c4ncnc(N)c34)cc2)n1 (single isomer, unassigned) [Example 909]
< 0.1 µM | ≤ 0.1 µM | C=C(C)C(=O)Nc1ccc(-c2c(C3=CC[C@H](C(=O)N4CCCC45COC5)CC3)c3c(N)ncnc3n2C)cc1 (single isomer, unassigned) [Example 913]
< 0.1 µM | ≤ 0.1 µM | C=C(C)C(=O)Nc1ccc(-c2c(C3=CC[C@@H](C(=O)N4CCCC45COC5)CC3)c3c(N)ncnc3n2C)cc1 (single isomer, unassigned) [Example 914]
0.1 to 0.25 µM | 0.1 to 0.25 µM | Cc1ccnc(Oc2ccc(-c3c(-c4ccc(OC[C@H]5CO5)cc4)n(C)c4ncnc(N)c34)cc2)n1 (single isomer, unassigned) [Example 917]
0.25 to 1 µM | 1 to 100 µM | Cc1ccnc(Oc2ccc(-c3c(-c4ccc(OC[C@@H]5CO5)cc4)n(C)c4ncnc(N)c34)cc2)n1 (single isomer, unassigned) [Example 918]
0.1 to 0.25 µM | 1 to 100 µM | C=C(C)C(=O)Nc1ccc(-c2c(-c3ccc4c(c3)OC[C@@H]4c3cccc(C)n3)c3c(N)ncnc3n2C)cc1 (single isomer, unassigned) [Example 919]

IC50 (FGFR2) | IC50 (SNU-16) | Structure (SMILES)
< 0.1 µM | ≤ 0.1 µM | C=C(C)C(=O)Nc1ccc(-c2c(-c3ccc4c(c3)OC[C@H]4c3cccc(C)n3)c3c(N)ncnc3n2C)cc1 (single isomer, unassigned) [Example 920]
< 0.1 µM | ≤ 0.1 µM | C=C(C)C(=O)Nc1ccc(-c2c(N3CC[C@@H](C(=O)N4CCCC4)CC3=O)c3c(N)ncnc3n2C)cc1 (single isomer, unassigned) [Example 925]
1 to 100 µM | 1 to 100 µM | C=C(C)C(=O)Nc1ccc(-c2c(N3CC[C@H](C(=O)N4CCCC4)CC3=O)c3c(N)ncnc3n2C)cc1 (single isomer, unassigned) [Example 926]
1 to 100 µM | 1 to 100 µM | C=CC(=O)N[C@@H]1Cc2ccc(-c3c(-c4ccc(Oc5nccc(C)n5)cc4)c4c(N)ncnc4n3C)cc2C1 (single isomer, unassigned) [Example 927]
0.25 to 1 µM | 0.25 to 1 µM | C=CC(=O)N[C@H]1Cc2ccc(-c3c(-c4ccc(Oc5nccc(C)n5)cc4)c4c(N)ncnc4n3C)cc2C1 (single isomer, unassigned) [Example 928]
0.25 to 1 µM | 0.1 to 0.25 µM | C=CC(=O)N[C@H]1CCc2cc(-c3c(-c4ccc(Oc5nccc(C)n5)cc4)c4c(N)ncnc4n3C)ccc21 (single isomer, unassigned) [Example 929]
0.25 to 1 µM | 0.1 to 0.25 µM | C=C(C)C(=O)N1CC=C(c2c(-c3ccc(Oc4cccc(C)n4)cc3)c3c(N)ncnc3n2C)[C@H]1C (single isomer, unassigned) [Example 930]
0.25 to 1 µM | 1 to 100 µM | C=C(C)C(=O)N1CC=C(c2c(-c3ccc(Oc4cccc(C)n4)cc3)c3c(N)ncnc3n2C)[C@@H]1C (single isomer, unassigned) [Example 931]
0.1 to 0.25 µM | 0.25 to 1 µM | C=CC(=O)N1CC=C(c2c(-c3ccc(Oc4cccc(C)n4)cc3)c3c(N)ncnc3n2C)[C@H]1C (single isomer, unassigned) [Example 932]
< 0.1 µM | ≤ 0.1 µM | C=CC(=O)N1CC=C(c2c(-c3ccc(Oc4cccc(C)n4)cc3)c3c(N)ncnc3n2C)[C@@H]1C (single isomer, unassigned) [Example 933]
< 0.1 µM | ≤ 0.1 µM | C=C(C)C(=O)Nc1ccc(-c2c(C3=CC[C@]4(CC3)CCN(C)C4=O)c3c(N)ncnc3n2C)cc1 (single isomer, unassigned) [Example 934]
1 to 100 µM | 1 to 100 µM | C=C(C)C(=O)Nc1ccc(-c2c(C3=CC[C@@]4(CC3)CCN(C)C4=O)c3c(N)ncnc3n2C)cc1 (single isomer, unassigned) [Example 935]
1 to 100 µM | 0.25 to 1 µM | C=C(C)C(=O)Nc1ccc(-c2c(C3=CC[C@@H](C(=O)N4CCCC4)C[C@H]3C)c3c(N)ncnc3n2C)cc1 (single isomer, unassigned) [Example 936]
1 to 100 µM | 1 to 100 µM | C=C(C)C(=O)Nc1ccc(-c2c(C3=CC[C@H](C(=O)N4CCCC4)C[C@H]3C)c3c(N)ncnc3n2C)cc1 (single isomer, unassigned) [Example 938]
1 to 100 µM | 1 to 100 µM | C=C(C)C(=O)Nc1ccc(-c2c(C3=CC[C@H](C(=O)N4CCCC4)C[C@@H]3C)c3c(N)ncnc3n2C)cc1 (single isomer, unassigned) [Example 939]
1 to 100 µM | 1 to 100 µM | C=CC(=O)N1CC[C@@H](c2c(-c3ccc(Oc4cccc(C)n4)cc3)c3c(N)ncnc3n2C)[C@H]1C (single isomer, unassigned) [Example 940]
0.25 to 1 µM | 0.1 to 0.25 µM | C=CC(=O)N1CC[C@H](c2c(-c3ccc(Oc4cccc(C)n4)cc3)c3c(N)ncnc3n2C)[C@H]1C (single isomer, unassigned) [Example 941]
0.25 to 1 µM | 0.25 to 1 µM | C=CC(=O)N[C@@H]1CCc2cc(-c3c(-c4ccc(Oc5nccc(C)n5)cc4)c4c(N)ncnc4n3C)ccc21 (single isomer, unassigned) [Example 942]
1 to 100 µM | 1 to 100 µM | C=CC(=O)N[C@@H]1CCc2ccc(-c3c(-c4ccc(Oc5nccc(C)n5)cc4)c4c(N)ncnc4n3C)cc2C1 (single isomer, unassigned) [Example 944]
1 to 100 µM | 1 to 100 µM | C=CC(=O)N[C@H]1CCc2ccc(-c3c(-c4ccc(Oc5nccc(C)n5)cc4)c4c(N)ncnc4n3C)cc2C1 (single isomer, unassigned) [Example 945]
0.1 to 0.25 µM | 1 to 100 µM | C#C[C@@H]1CCCN1C(=O)[C@H]1CC=C(c2c(-c3ccc(NC(=O)C(=C)C)cc3)n(C)c3ncnc(N)c23)CC1 (single isomer, unassigned) [Example 949]
1 to 100 µM | 1 to 100 µM | C#C[C@H]1CCCN1C(=O)[C@H]1CC=C(c2c(-c3ccc(NC(=O)C(=C)C)cc3)n(C)c3ncnc(N)c23)CC1 (single isomer, unassigned) [Example 950]

Structure (SMILES) | IC50 (FGFR2) | IC50 (SNU-16)
Cn1c(-c2ccc(NC(=O)[C@@H]3CN3)cc2)c(-c2ccc(C(=O)N3CCCC3)cc2)c2c(N)ncnc21 (single isomer, unassigned) [Example 899] | 1 to 100 µM | 1 to 100 µM
Cn1c(-c2ccc(NC(=O)[C@H]3CN3)cc2)c(-c2ccc(C(=O)N3CCCC3)cc2)c2c(N)ncnc21 (single isomer, unassigned) [Example 900] | 1 to 100 µM | 1 to 100 µM

From patent US11780845B2 (Relay Therapeutics, Inc., priority 2019, dated 2023)
